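Five concentrations, 48 hours, 96-well plates. At the TGI there is no net growth.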
How the values were obtained:
Assay in all cases: NCI tumour cell line growth inhibition, 48 h
[1] = tested on: 786-0 renal
[2] = tested on: A498 renal
[3] = tested on: A549 NSCLC
[4] = tested on: ACHN renal
[5] = tested on: CAKI-1 renal
[6] = tested on: CCRF-CEM leukemia
[7] = tested on: COLO 205 colon
[8] = tested on: DU-145 prostate
[9] = tested on: EKVX NSCLC
[10] = tested on: HCC-2998 colon
[11] = tested on: HCT-15 colon
[12] = tested on: HL-60(TB) leukemia
[13] = tested on: HOP-62 NSCLC
[14] = tested on: HOP-92 NSCLC
[15] = tested on: HS 578T breast
[16] = tested on: HT29 colon
[17] = tested on: IGROV1 ovarian
[18] = tested on: K-562 leukemia
[19] = tested on: KM12 colon
[20] = tested on: LOX IMVI melanoma
[21] = tested on: M14 melanoma
[22] = tested on: MALME-3M melanoma
[23] = tested on: MCF7 breast
[24] = tested on: MDA-MB-231 breast
[25] = tested on: MDA-MB-435
[26] = tested on: MDA-N
[27] = tested on: MOLT-4 leukemia
[28] = tested on: NCI-H23 lung
[29] = tested on: NCI-H460 lung
[30] = tested on: NCI-H522 lung
[31] = tested on: NCI/ADR-RES ovarian
[32] = tested on: OVCAR-3 ovarian
[33] = tested on: OVCAR-4 ovarian
[34] = tested on: OVCAR-5 ovarian
[35] = tested on: OVCAR-8 ovarian
[36] = tested on: PC-3 prostate
[37] = tested on: RPMI-8226 leukemia
[38] = tested on: RXF 393 renal
[39] = tested on: SF-268 CNS
[40] = tested on: SF-295 CNS
[41] = tested on: SF-539 CNS
[42] = tested on: SK-MEL-2 melanoma
[43] = tested on: SK-MEL-28 melanoma
[44] = tested on: SK-MEL-5 melanoma
[45] = tested on: SK-OV-3 ovarian
[46] = tested on: SN12C renal
[47] = tested on: SNB-19 CNS
[48] = tested on: SNB-75 CNS
[49] = tested on: SR leukemia
[50] = tested on: SW-620 colon
[51] = tested on: T-47D breast
[52] = tested on: TK-10 renal
[53] = tested on: U251 CNS
[54] = tested on: UACC-257 melanoma
[55] = tested on: UACC-62 melanoma
[56] = tested on: UO-31 renal
[57] = tested on: HCT-116 colon
[58] = tested on: NCI-H226 lung

`CC1=C2C(=O)c3ccccc3C(=O)[C@H]2C[C@@H](N2CCCC2=O)O1` was tested, and the TGI [1] was 65.5 µM, the TGI [2] was greater than 100 µM and the TGI [3] was greater than 100 µM. For the same compound, the TGI [4] was greater than 100 µM, the TGI [5] was greater than 100 µM and the TGI [6] was 81.8 µM. It also gave a TGI [7] greater than 100 µM, a TGI [8] of 54.7 µM and a TGI [9] greater than 100 µM. The TGI [10] was greater than 100 µM, the TGI [11] was greater than 100 µM and the TGI [12] was greater than 100 µM. It also gave a TGI [13] greater than 100 µM, a TGI [14] of 61.7 µM and a TGI [15] greater than 100 µM. For the same compound, the TGI [16] was greater than 100 µM, the TGI [17] was greater than 100 µM and the TGI [18] was greater than 100 µM. It also gave a TGI [19] greater than 100 µM, a TGI [20] of 37.8 µM and a TGI [21] of 34.9 µM. The TGI [22] was 31.8 µM, the TGI [23] was 29.9 µM and the TGI [24] was greater than 100 µM. The TGI [25] was 33.1 µM, the TGI [26] was 30 µM and the TGI [27] was greater than 100 µM. The TGI [28] was 57.1 µM, the TGI [29] was greater than 100 µM and the TGI [30] was greater than 100 µM. It also gave a TGI [31] of 97 µM, a TGI [32] of 63.9 µM and a TGI [33] of 38.2 µM. For the same compound, the TGI [34] was 42.5 µM, the TGI [35] was greater than 100 µM and the TGI [36] was greater than 100 µM. It also gave a TGI [37] of 49.5 µM, a TGI [38] of 45.3 µM and a TGI [39] greater than 100 µM. It also gave a TGI [40] greater than 100 µM, a TGI [41] of 49.1 µM and a TGI [42] greater than 100 µM. It also gave a TGI [43] greater than 100 µM, a TGI [44] of 32.7 µM and a TGI [45] greater than 100 µM. For the same compound, the TGI [46] was greater than 100 µM, the TGI [47] was greater than 100 µM and the TGI [48] was 61 µM. For the same compound, the TGI [49] was 87.7 µM, the TGI [50] was 66.9 µM and the TGI [51] was 53.5 µM. For the same compound, the TGI [52] was greater than 100 µM, the TGI [53] was 76.4 µM and the TGI [54] was greater than 100 µM. The TGI [55] was greater than 100 µM and the TGI [56] was greater than 100 µM.

With `O=C(Nc1ccc(Cl)cc1)c1cc2c(cc1Cl)Sc1nccn1S2(=O)=O` the TGI [1] was greater than 100 µM, the TGI [2] was greater than 100 µM and the TGI [3] was greater than 100 µM. For the same compound, the TGI [4] was greater than 100 µM, the TGI [5] was greater than 100 µM and the TGI [6] was greater than 100 µM. The TGI [7] was greater than 100 µM, the TGI [8] was greater than 100 µM and the TGI [9] was greater than 100 µM. For the same compound, the TGI [10] was greater than 100 µM, the TGI [57] was greater than 100 µM and the TGI [11] was greater than 100 µM. The TGI [13] was greater than 100 µM, the TGI [15] was 97.4 µM and the TGI [16] was greater than 100 µM. For the same compound, the TGI [17] was greater than 100 µM, the TGI [18] was greater than 100 µM and the TGI [19] was greater than 100 µM. The TGI [20] was greater than 100 µM, the TGI [21] was greater than 100 µM and the TGI [22] was greater than 100 µM. For the same compound, the TGI [23] was greater than 100 µM, the TGI [24] was greater than 100 µM and the TGI [25] was greater than 100 µM. The TGI [26] was greater than 100 µM, the TGI [27] was greater than 100 µM and the TGI [58] was greater than 100 µM. The TGI [29] was greater than 100 µM, the TGI [30] was greater than 100 µM and the TGI [31] was greater than 100 µM. It also gave a TGI [32] greater than 100 µM, a TGI [33] greater than 100 µM and a TGI [34] greater than 100 µM. The TGI [35] was greater than 100 µM, the TGI [36] was greater than 100 µM and the TGI [38] was greater than 100 µM. The TGI [39] was greater than 100 µM, the TGI [40] was greater than 100 µM and the TGI [41] was greater than 100 µM. The TGI [42] was greater than 100 µM, the TGI [43] was greater than 100 µM and the TGI [44] was greater than 100 µM. The TGI [45] was greater than 100 µM, the TGI [46] was greater than 100 µM and the TGI [47] was greater than 100 µM. The TGI [48] was 25.2 µM, the TGI [49] was greater than 100 µM and the TGI [50] was greater than 100 µM. For the same compound, the TGI [51] was greater than 100 µM and the TGI [53] was 39.6 µM.

For `CCOC(=O)c1c(SCc2ccccc2)nc2c3ccccc3ccn12`, the TGI [1] was greater than 100 µM, the TGI [2] was greater than 100 µM and the TGI [3] was greater than 100 µM. It also gave a TGI [4] greater than 100 µM, a TGI [5] greater than 100 µM and a TGI [6] greater than 100 µM. It also gave a TGI [7] greater than 100 µM, a TGI [8] greater than 100 µM and a TGI [9] greater than 100 µM. It also gave a TGI [10] greater than 100 µM, a TGI [57] greater than 100 µM and a TGI [11] greater than 100 µM. For the same compound, the TGI [12] was greater than 100 µM, the TGI [13] was greater than 100 µM and the TGI [14] was 27.5 µM. It also gave a TGI [15] of 58.3 µM, a TGI [16] greater than 100 µM and a TGI [17] greater than 100 µM. The TGI [18] was greater than 100 µM, the TGI [19] was greater than 100 µM and the TGI [20] was greater than 100 µM. It also gave a TGI [21] greater than 100 µM, a TGI [22] greater than 100 µM and a TGI [23] greater than 100 µM. It also gave a TGI [24] greater than 100 µM, a TGI [25] greater than 100 µM and a TGI [26] greater than 100 µM. For the same compound, the TGI [27] was greater than 100 µM, the TGI [58] was greater than 100 µM and the TGI [28] was greater than 100 µM. For the same compound, the TGI [29] was greater than 100 µM, the TGI [30] was greater than 100 µM and the TGI [31] was greater than 100 µM. The TGI [33] was greater than 100 µM, the TGI [34] was greater than 100 µM and the TGI [35] was greater than 100 µM. The TGI [36] was greater than 100 µM, the TGI [37] was greater than 100 µM and the TGI [38] was greater than 100 µM. It also gave a TGI [39] greater than 100 µM, a TGI [40] greater than 100 µM and a TGI [41] greater than 100 µM. It also gave a TGI [42] greater than 100 µM, a TGI [43] greater than 100 µM and a TGI [44] greater than 100 µM. For the same compound, the TGI [45] was greater than 100 µM, the TGI [46] was greater than 100 µM and the TGI [48] was greater than 100 µM. The TGI [49] was greater than 100 µM, the TGI [50] was greater than 100 µM and the TGI [51] was greater than 100 µM. The TGI [53] was greater than 100 µM, the TGI [54] was greater than 100 µM and the TGI [55] was greater than 100 µM.

— PubChem BioAssay (NCI)
